Experiments:
[1] = Stability of CHF 4226 in aqueous solution, pH 4.0 to 5.5, buffers comprising citric acid at different concentrations (HPLC); format: physicochemical; conditions: pH interval between 4.0 and 5.0, 40° C., 75% R.H.
Method: The chemical stability of CHF 4226 was then investigated in the pH interval comprised from 4.0 to 5.5 adjusted with buffers comprising citric acid at different concentrations.
The different formulations were stored under accelerated conditions (40° C., 75% R.H.) for at least four months.
Various liquid, propellant-free formulations comprising 0.001% w/v CHF 4226 were prepared according the procedure described in the Example 1 except that sodium chloride was not added in order to better appreciate the effect of the buffer concentration on the chemical stability.
The pH was adjusted in the interval comprised between 4.0 and 5.5 with buffers consisting of different relative percentages of the citric acid/sodium citrate couple or the citric acid/dibasic sodium phosphate couple. Each formulation was distributed in 20 ml glass vials.
The stability of the formulations was evaluated under accelerated conditions (40° C., 75% R.H.) for at least four months.
The impurities/degradation products of CHF 4226 were determined by HPLC using the experimental conditions reported in the Example 2.

[2] = First stability study of CHF 4226 solutions, pH 3.0 to 6.0 adjusted with different agents (HPLC); format: physicochemical; conditions: for stability (total impurities/degradation products): compared with not stable, higher than 5% after 1 month accelerated
Method: Stability studies in different conditions of pH were carried out.
The amount of the main degradation products and the total impurities and degradation products of CHF 4226 were determined by HPLC.
Total impurities and degradation products comprise the starting impurities present in the drug, the main degradation products and other minor degradation products forming during storage.
In a first study, the effect of the pH in a rather broad range comprised between 3.0 and 6.0 adjusted with different kind of agents was investigated.
The different formulations were stored under long term (25° C., 60% R.H.) and accelerated (40° C., 75% R.H.) conditions for three months.

[3] = cited from earlier work

SMILES	chemical stability [1]	chemical stability in aqueous solution ([2]; pH 4.5±0.1, citrate buffer about 19 mM, compared with other pH/agents, 25° C./60% R.H. and 40° C./75% R.H., three months)	stability (total impurities/degradation products) ([2]; phosphoric acid, pH 3.0)	stability (total impurities/degradation products) ([2]; phosphoric acid/phosphate buffer, pH 6.0)	stability in solution ([3]; pH 4.0 to 6.0, acetate or acetate/phosphate buffer, protected from air)	effect of ferric ions on the auto-oxidation rate ([3]; presence of ferric ions, except the solution at pH 6.0 (acetate and phosphate buffer))	pH at which the lowest degradation rate was obtained ([3]; solutions at pH 4.0, 4.5, 5.0, 5.5 and 6.0)
COc1ccc(C[C@@H](C)NC[C@H](O)c2ccc(O)c3[nH]c(=O)ccc23)cc1 [CHF 4226, 8-hydroxy-5-[(1R)-1-hydroxy-2-[[(1R)-2-(4-methoxyphenyl)-1-methylethyl]amino]ethyl]-2(1H)-quinolinone]	improved	chemically more stable	analogous behavior	analogous behavior	–	–	–
CCC(NC(C)C)C(O)c1ccc(O)c2[nH]c(=O)ccc12 (stereo not shown) [procaterol]	–	–	–	–	more stable at more acidic pHs	increased the auto-oxidation rate	4.0

From patent US20070065366A1, “Pharmaceutical formulations comprising a long-acting beta2-agonist for administration by nebulisation” (Chiesi Farmaceutici S.p.A., priority 2005, published 2007)
